The source of these data is patent publication US20230331690A1, “THC DERIVATIVES, ORAL DOSAGE FORMS COMPRISING SAME, USES THEREOF FOR TREATING DISEASES AND DISORDERS AND SYNTHESIS THEREOF” (BAR-ILAN UNIVERSITY, priority 2020, published 2023).

Values joined by “and” are separate entries in the source; they are usually repeats but may differ in a detail not shown here. Identical values can stand only once.

The test has as its system hind paw of mice. Description: Electronic Von-Frey mechanical sensitivity (withdrawal thresholds) after Paclitaxel-induced neuropathic pain. The format is in vivo. The following applies: for Withdrawal test, test 1 / Withdrawal test, test 4 / Withdrawal test, test 5 / Withdrawal test, test 2 / Withdrawal test, test 3 / Withdrawal test, test 6: per animal; for Withdrawal test, All group average: 8 mice; for Withdrawal test, Average: average per animal; for Withdrawal test, test 6: additional test. On the procedure:
Mechanical sensitivity was evaluated by measuring the changes in tactile sensitivity in the hind paw of mice, using an Electronic Von-Frey apparatus (EVF). Withdrawal thresholds were measured, using the EVF apparatus, first at baseline (time=0) and then following drug, in a few periods after administration, by applying an accurate force on specific areas of the skin and measuring the needed force for the mouse to lift its paw.
Paclitaxel was utilized for the stimulation of a chemotherapy-induced neuropathic pain. Paclitaxel is anti-cancer chemotherapy drug classified as a “plant alkaloid” and an “antimicrotubule agent”.
Mice were divided into three groups of 8 mice each, as follows: • (a) Group no. 1—Morphine as positive control; • (b) Group no. […] 3—synthetic THC derivative 9-Desmethyl THC.
A portion of Paclitaxel was administered to each mouse by i.p. injection, on days 1, 3, 5 and 7 from the beginning of the experiment. At day 8, withdrawal thresholds were measured first at baseline (time=0), thereafter each mouse received a single portion of a drug substance, at 5 mg/Kg body weight concentration, by oral gavage and measurements took place.
The first checking point was 1 hour after administration of each drug. For every mouse, its threshold for the pain perception in which it removes its hind paw after the stabbing of the Von-Frey hair has been checked. Needed force (in gram force units) was measured each time and was recorded for every checking. This test was repeated 5 times for each mouse consecutively.
This procedure was repeated for all the three groups. The next checking point was 3 hours after administration, where the last withdrawal thresholds measurements were performed on the next morning, on day 9, which was 24 hours after administration.
Morphine was utilized as a positive control where group no. 1 mice received morphine (dissolved in a saline solution (0.9%) and injected subcutaneously) as an analgesic agent, prior to the mechanical sensitivity tests.
The tests described in this example are complicated and depend on numerous factors. Accordingly, results above 10.0 gram force (marked with an asterisk) were not included in the evaluation of the experimental data. In cases of exceptional results, an additional test was performed mouse (test 6) in order to assure the exceptional result.

Setting [1] is: t = 1 h after 5 mg/Kg, * values excluded.
[2] abbreviates: t = 3 h after 5 mg/Kg, * values excluded.
[3] abbreviates: t = 24 h after 5 mg/Kg, * values excluded.

Consider `[2H]C([2H])([2H])C1=C[C@H]2c3c(O)cc(CCCCC)cc3OC(C)(C)[C@@H]2CC1([2H])[2H]` [9-CD3-(8-D2)-THC], for which the “Withdrawal test, test 1” value (t = 1 h after 5 mg/Kg single dose (oral gavage; morphine s.c.), * values >10.0 excluded from evaluation) is 4.7 gram force and 4.8 gram force and 6.0 gram force (2×) and 5.0 gram force and 4.5 gram force and 6.1 gram force and 7.1 gram force. In addition, under “t = 1 h after 5 mg/Kg”, the “Withdrawal test, All group average” value was 5.68 gram force; the “Withdrawal test, Average” value was 4.54 gram force and 6.14 gram force and 6.76 gram force and 5.24 gram force and 5.64 gram force and 4.88 gram force and 6.16 gram force and 6.06 gram force; the “Withdrawal test, test 4” value is 4.3 gram force and 4.5 gram force and 5.9 gram force and 6.7 gram force and 7.1 gram force and 4.7 gram force and 5.3 gram force and 4.2 gram force; the “Withdrawal test, test 5” value was 5.4 gram force and 8.7 gram force and 7.7 gram force and 5.2 gram force and 4.3 gram force and 4.7 gram force and 4.5 gram force and 8.5 gram force. Under setting [1], the “Withdrawal test, test 2” value was 4.1 gram force and 5.8 gram force and 6.5 gram force and 4.0 gram force and 4.8 gram force and 4.6 gram force and 8.9 gram force and 5.6 gram force; the “Withdrawal test, test 3” value was 4.2 gram force and 6.9 gram force and 7.7 gram force and 5.3 gram force and 7.5 gram force and 4.3 gram force and 6.1 gram force and 4.9 gram force. Further, where the note is “t = 3 h after 5 mg/Kg”, the “Withdrawal test, All group average” value is listed as 5.67 gram force; the “Withdrawal test, Average” value was 5.16 gram force and 6.42 gram force and 4.72 gram force and 6.08 gram force (2×) and 5.64 gram force and 5.92 gram force and 5.30 gram force; the “Withdrawal test, test 2” value was 5.9 gram force and 5.4 gram force and 5.0 gram force and 5.1 gram force (2×) and 9.2 gram force and 7.2 gram force and 6.5 gram force; the “Withdrawal test, test 4” value is 4.7 gram force and 9.2 gram force and 4.3 gram force and 5.9 gram force and 6.2 gram force and 6.6 gram force and 5.2 gram force and 4.6 gram force. In addition, for the setting “t = 3 h after 5 mg/Kg”, the “Withdrawal test, test 5” value was 5.8 gram force and 6.7 gram force and 4.0 gram force (2×) and 6.4 gram force and 4.5 gram force and 4.8 gram force and 5.3 gram force; the “Withdrawal test, test 6” value was 4.1 gram force and 4.9 gram force (2×) and 4.3 gram force. Under setting [2], the “Withdrawal test, test 1” value is 4.6 gram force and 4.4 gram force (2×) and 4.7 gram force and 6.9 gram force and 8.2 gram force and 7.6 gram force and 4.5 gram force; the “Withdrawal test, test 3” value is 4.8 gram force and 6.4 gram force and 5.6 gram force (3×) and *12.8 gram force and 4.7 gram force and 4.9 gram force. Besides, under “t = 24 h after 5 mg/Kg”, the “Withdrawal test, All group average” value is on record as 5.28 gram force; the “Withdrawal test, Average” value was 4.70 gram force and 5.96 gram force and 4.56 gram force and 6.33 gram force and 4.98 gram force and 5.32 gram force and 4.80 gram force and 5.56 gram force; the “Withdrawal test, test 1” value is 6.0 gram force and 7.5 gram force and 4.0 gram force and 7.6 gram force and 5.0 gram force and 4.4 gram force and 4.9 gram force and 4.5 gram force; the “Withdrawal test, test 2” value is 4.6 gram force and 6.0 gram force and 4.0 gram force and 7.5 gram force and 6.5 gram force and 5.3 gram force and 5.7 gram force and 5.0 gram force. Further, where the note is “t = 24 h after 5 mg/Kg”, the “Withdrawal test, test 3” value was 4.6 gram force and 4.2 gram force and 4.0 gram force (2×) and 5.6 gram force and 5.4 gram force and 5.3 gram force and 6.8 gram force; the “Withdrawal test, test 6” value is on record as 4.5 gram force. In addition, the “Withdrawal test, Change from b.l.” value (t = 24 h after 5 mg/Kg, group average vs baseline) was −2.6%. Moreover, under setting [3], the “Withdrawal test, test 4” value was 4.3 gram force (2×) and 4.0 gram force and 6.8 gram force (2×) and *10.3 gram force and 4.1 gram force and 5.2 gram force; the “Withdrawal test, test 5” value was 4.0 gram force (3×) and 8.1 gram force and 4.6 gram force and 5.1 gram force and 4.7 gram force and 6.3 gram force.
